Data reported in ChEMBL document CHEMBL1153245, “A profile of the in vitro anti-tumor activity of imidazolium-based ionic liquids” (2010).

Legend:
Type in all cases: functional
HOP-62 = experiment: Anticancer activity against human HOP62 cells assessed cell growth at 10 uM after 48 hrs by sulforhodamine B assay relative to control
MDA-MB-231 = experiment: Anticancer activity against human MDA-MB-231 cells assessed cell growth at 10 uM after 48 hrs by sulforhodamine B assay relative to control
SF-268 = experiment: Anticancer activity against human SF268 cells assessed cell growth at 10 uM after 48 hrs by sulforhodamine B assay relative to control
TK-10 = experiment: Anticancer activity against human TK10 cells assessed cell growth at 10 uM after 48 hrs by sulforhodamine B assay relative to control
COLO 205 = experiment: Anticancer activity against human COLO205 cells assessed cell growth at 10 uM after 48 hrs by sulforhodamine B assay relative to control
HOP-92 = experiment: Anticancer activity against human HOP92 cells assessed cell growth at 10 uM after 48 hrs by sulforhodamine B assay relative to control
NCI-H460 = experiment: Anticancer activity against human NCI-H460 cells assessed cell growth at 10 uM after 48 hrs by sulforhodamine B assay relative to control
SR = experiment: Anticancer activity against human SR cells assessed cell growth at 10 uM after 48 hrs by sulforhodamine B assay relative to control
OVCAR-5 = experiment: Anticancer activity against human OVCAR5 cells assessed cell growth at 10 uM after 48 hrs by sulforhodamine B assay relative to control
SN12C = experiment: Anticancer activity against human SN12C cells assessed cell growth at 10 uM after 48 hrs by sulforhodamine B assay relative to control
A498 = experiment: Anticancer activity against human A498 cells assessed cell growth at 10 uM after 48 hrs by sulforhodamine B assay relative to control
SF-295 = experiment: Anticancer activity against human SF295 cells assessed cell growth at 10 uM after 48 hrs by sulforhodamine B assay relative to control
UO-31 = experiment: Anticancer activity against human UO31 cells assessed cell growth at 10 uM after 48 hrs by sulforhodamine B assay relative to control
A549 = experiment: Anticancer activity against human A549 cells assessed cell growth at 10 uM after 48 hrs by sulforhodamine B assay relative to control
NCI-H23 = experiment: Anticancer activity against human NCI-H23 cells assessed cell growth at 10 uM after 48 hrs by sulforhodamine B assay relative to control
OVCAR-3 = experiment: Anticancer activity against human OVCAR-3 cells assessed cell growth at 10 uM after 48 hrs by sulforhodamine B assay relative to control
SK-OV-3 = experiment: Anticancer activity against human SKOV3 cells assessed cell growth at 10 uM after 48 hrs by sulforhodamine B assay relative to control
SW-620 = experiment: Anticancer activity against human SW620 cells assessed cell growth at 10 uM after 48 hrs by sulforhodamine B assay relative to control
SNB-75 = experiment: Anticancer activity against human SNB75 cells assessed cell growth at 10 uM after 48 hrs by sulforhodamine B assay relative to control
NCI/ADR-RES = experiment: Anticancer activity against human NCI/ADR-RES cells assessed cell growth at 10 uM after 48 hrs by sulforhodamine B assay relative to control
RXF 393 = experiment: Anticancer activity against human RXF393 cells assessed cell growth at 10 uM after 48 hrs by sulforhodamine B assay relative to control
PC-3 = experiment: Anticancer activity against human PC3 cells assessed cell growth at 10 uM after 48 hrs by sulforhodamine B assay relative to control
HL-60(TB) = experiment: Anticancer activity against human HL-60(TB) cells assessed cell growth at 10 uM after 48 hrs by sulforhodamine B assay relative to control
K562 = experiment: Anticancer activity against human K562 cells assessed cell growth at 10 uM after 48 hrs by sulforhodamine B assay relative to control
OVCAR-4 = experiment: Anticancer activity against human OVCAR4 cells assessed cell growth at 10 uM after 48 hrs by sulforhodamine B assay relative to control
LOX IMVI = experiment: Anticancer activity against human LOXIMVI cells assessed cell growth at 10 uM after 48 hrs by sulforhodamine B assay relative to control
DU-145 = experiment: Anticancer activity against human DU145 cells assessed cell growth at 10 uM after 48 hrs by sulforhodamine B assay relative to control
CAKI-1 = experiment: Anticancer activity against human Caki1 cells assessed cell growth at 10 uM after 48 hrs by sulforhodamine B assay relative to control
HCT-116 = experiment: Anticancer activity against human HCT116 cells assessed cell growth at 10 uM after 48 hrs by sulforhodamine B assay relative to control
MOLT-4 = experiment: Anticancer activity against human MOLT4 cells assessed cell growth at 10 uM after 48 hrs by sulforhodamine B assay relative to control
KM12 = experiment: Anticancer activity against human KM12 cells assessed cell growth at 10 uM after 48 hrs by sulforhodamine B assay relative to control
[1] = Anticancer activity against human RPMI8266 cells assessed cell growth at 10 uM after 48 hrs by sulforhodamine B assay relative to control
ACHN = experiment: Anticancer activity against human ACHN cells assessed cell growth at 10 uM after 48 hrs by sulforhodamine B assay relative to control
M14 = experiment: Anticancer activity against human M14 cells assessed cell growth at 10 uM after 48 hrs by sulforhodamine B assay relative to control
UACC-62 = experiment: Anticancer activity against human UACC62 cells assessed cell growth at 10 uM after 48 hrs by sulforhodamine B assay relative to control
SF-539 = experiment: Anticancer activity against human SF539 cells assessed cell growth at 10 uM after 48 hrs by sulforhodamine B assay relative to control
CCRF-CEM = experiment: Anticancer activity against human CCRF-CEM cells assessed cell growth at 10 uM after 48 hrs by sulforhodamine B assay relative to control
HCC 2998 = experiment: Anticancer activity against human HCC2998 cells assessed cell growth at 10 uM after 48 hrs by sulforhodamine B assay relative to control
NCI-H522 = experiment: Anticancer activity against human NCI-H522 cells assessed cell growth at 10 uM after 48 hrs by sulforhodamine B assay relative to control
NCI-H322M = experiment: Anticancer activity against human NCI-H322M cells assessed cell growth at 10 uM after 48 hrs by sulforhodamine B assay relative to control
IGROV-1 = experiment: Anticancer activity against human IGROV1 cells assessed cell growth at 10 uM after 48 hrs by sulforhodamine B assay relative to control
OVCAR-8 = experiment: Anticancer activity against human OVCAR8 cells assessed cell growth at 10 uM after 48 hrs by sulforhodamine B assay relative to control
T47D = experiment: Anticancer activity against human T47D cells assessed cell growth at 10 uM after 48 hrs by sulforhodamine B assay relative to control

CCCCCC[n+]1ccn(C)c1.O=S(=O)([N-]S(=O)(=O)C(F)(F)F)C(F)(F)F
Activity (HOP-62): 89.75%
Activity (MDA-MB-231): 86.26%
Activity (SF-268): 109.15%
Activity (TK-10): 124.14%
Activity (COLO 205): 100.66%
Activity (HOP-92): 114.14%
Activity (NCI-H460): 90.77%
Activity (SR): 126.57%
Activity (OVCAR-5): 105.87%
Activity (SN12C): 90.25%
Activity (A498): 84.14%
Activity (SF-295): 101.37%
Activity (UO-31): 84.29%
Activity (A549): 78.86%
Activity (NCI-H23): 89.09%
Activity (OVCAR-3): 99.74%
Activity (SK-OV-3): 95.29%
Activity (SW-620): 99.75%
Activity (SNB-75): 94.84%
Activity (NCI/ADR-RES): 99.76%
Activity (RXF 393): 103.51%
Activity (PC-3): 105.34%
Activity (HL-60(TB)): 112.14%
Activity (K562): 101.77%
Activity (OVCAR-4): 82.57%
Activity (LOX IMVI): 92.45%
Activity (DU-145): 117.36%
Activity (CAKI-1): 66.14%
Activity (HCT-116): 80.77%
Activity (MOLT-4): 100.94%
Activity (KM12): 100.77%
Activity [1]: 125.38%
Activity (ACHN): 88.98%
Activity (M14): 100.39%
Activity (UACC-62): 92.58%
Activity (SF-539): 75.4%
Activity (CCRF-CEM): 121.99%
Activity (HCC 2998): 90.7%
Activity (NCI-H522): 81.74%
Activity (NCI-H322M): 113.78%
Activity (IGROV-1): 85.47%
Activity (OVCAR-8): 84.83%

Cn1cc[n+](CCO)c1.O=S(=O)([N-]S(=O)(=O)C(F)(F)F)C(F)(F)F
Activity (HOP-62): 90.22%
Activity (MDA-MB-231): 104.59%
Activity (SF-268): 104.78%
Activity (TK-10): 125.47%
Activity (COLO 205): 132.21%
Activity (HOP-92): 74.53%
Activity (NCI-H460): 114.83%
Activity (SR): 119.61%
Activity (SN12C): 96.7%
Activity (A498): 79.55%
Activity (SF-295): 128.56%
Activity (T47D): 100.5%
Activity (UO-31): 80.89%
Activity (A549): 99.55%
Activity (NCI-H23): 93.17%
Activity (OVCAR-3): 120.42%
Activity (SK-OV-3): 102.56%
Activity (SW-620): 103.41%
Activity (SNB-75): 79.94%
Activity (NCI/ADR-RES): 92.39%
Activity (RXF 393): 95.99%
Activity (PC-3): 86.93%
Activity (HL-60(TB)): 37.14%
Activity (K562): 80.37%
Activity (OVCAR-4): 100.13%
Activity (LOX IMVI): 90.65%
Activity (DU-145): 114.39%
Activity (CAKI-1): 90.82%
Activity (HCT-116): 100.02%
Activity (MOLT-4): 49.74%
Activity (KM12): 107.33%
Activity [1]: 72.12%
Activity (ACHN): 97.02%
Activity (M14): 102.65%
Activity (UACC-62): 100.11%
Activity (SF-539): 99.95%
Activity (CCRF-CEM): 72.37%
Activity (HCC 2998): 94.14%
Activity (NCI-H522): 90.32%
Activity (NCI-H322M): 94.56%
Activity (IGROV-1): 89%
Activity (OVCAR-8): 93.89%
